Test [1] deals with S. aureus. The test is described as follows: Disc diffusion zone of inhibition (Example 2). The format is cell-based, Staphylococcus aureus. The note with it: S. aureus. On the procedure: (§1) The growth medium was prepared by addition of Müller-Hinton agar (38 g) to 1 L distilled water under vigorous stirring and boiled for 10 min until complete dissolution. After cooling to 25° C., the pH value of the medium was 7.3±0.1. The medium was sterilized in an autoclave at 121° C. for 15 min at 20 psi, cooled to 45-50° C. and dispended into sterile Petri dishes on a leveled, horizontal surface to give uniform depth. Stock solutions of the microorganisms were incubated at 37° C. for 24 h and the turbidity of these microbial colony were adjusted visually with sterile saline (0.85% w/v NaCl) to 0.5 McFarland standards (bioMerieux, SA (France) they are made from barium sulfate (BaSO4). Within 15 min after adjusting the turbidity of the suspensions, the Petri dishes were inoculated using sterile cotton buds. The prepared antibiotic assay discs were placed on the surface of the seeded Müller-Hinton agar using flame sterilized forceps.
(§2) Stock solutions of compounds of Formula I, Ia, Ib and Formula II, IIa, pharmaceutically acceptable salts thereof, and metal complexes thereof were made in DMSO and were micropipetted onto the discs for 25 to 200 μg/disc. The discs were dried at ambient temperature for 30-50 min before placement onto the seeded Petri dishes which were then incubated at 37° C. for 24 h. Averaged inhibition zone diameters measurements (mm) have an accuracy of ±0.5 mm; adjacent overlapping ZOI were determined using radii measurements. Antibiotic disc like (sulfamethoxazole 23.75 μg trimethoprim 1.25 μg)/disc, Gentamicin 10 μg/disc and DMSO were used as positive and negative standards (control).
(§3) Antimicrobial test was carried out to evaluate the efficacy of compounds of Formula I, Ia, Ib and Formula II, IIa, pharmaceutically acceptable salts thereof, and metal complexes thereof, as well as control tests with control compounds, against six major pathogenic bacteria namely Bacillus cereus, Pseudomonas aeruginosa, Klebsiella pneumonia, Proteus vulgaris, Staphylococcus aureus and Escherichia coli.

A further test deals with P. vulgaris. The test is described as follows: Disc diffusion zone of inhibition (Example 2). The format is cell-based, Proteus vulgaris. On the procedure: as §1, §2, §3
(In general: In agar diffusion tests the substance spreads into inoculated agar from a disc or well.)

The next test deals with K. pnemonia. The test is described as follows: Disc diffusion zone of inhibition (Example 2). The format is cell-based, Klebsiella pneumonia. On the procedure: as §1, §2, §3
Test [2] in a line: DPPH antioxidant activity test. The note with it: 50 μg compound in 3 mL methanol; DPPH 150 μL 1 mM; 30 min, 25 °C; absorbance 517 nm. On the procedure:
In addition to antibacterial properties, antioxidant activity was assessed in the compounds of Formula I and II and metal complexes thereof as antioxidant compounds play an important role in remediating the toxic effects of reactive oxygen species and other free radicals. The main characteristic of an antioxidant compound is its ability to trap free radicals. Highly reactive free radicals and oxygen species are present in biological systems from a wide variety of sources. Free radical damage is known to occur during bacterial and other microbial infections. Free radicals are produced by cells of the immune system during an active infection, and generally as a result of the inflammatory processes.
DPPH (2,2-diphenyl-1-picryl-hydrazyl, 150 μL, 1 mM solution in methanol) was added to 3 mL methanol in a cuvette (0.5 in diameter) and UV-vis absorption recorded at 517 nm for baseline reading. In a cuvette, DPPH (150 μL, 1 mM solution in methanol) was added to a solution containing compound in 3 mL methanol. The reaction was allowed to stir at 25±1° C. for 30 min under exclusion of light. Absorbance was recorded at 517 nm against reference cuvette filled with methanol.
In general terms: The DPPH test is a chemical assay of radical scavenging.

Another test relates to E. coli. The test is described as follows: Disc diffusion zone of inhibition (Example 2). The format is cell-based, Escherichia coli. On the procedure: as §1, §2, §3
Test [3] has as its system B. cereus. Put plainly: Disc diffusion zone of inhibition (Example 2). The format is cell-based, Bacillus cereus. On the procedure: as §1, §2, §3
For another test, the system named is P. aeruginosa. Put plainly: Disc diffusion zone of inhibition (Example 2). The format is cell-based, Pseudomonas aeruginosa. On the procedure: as §1, §2, §3
For test [4], the system named is Proteus vulgaris (#13315). Put plainly: In vitro disc diffusion assay, ZOI (Example 3). The format is cell-based. Conditions: P. vulgaris; control; 10 μg/disc. On the procedure: (§4) Sterile assay discs (6 mm diameter) were obtained from VWR Whatman and antibiotic assay discs (6 mm diameter) containing getamicin (10 μg/disc) and the combination drug sulfamethoxazole 23.75 μg/disc and trimethoprim 1.25 μg/disc were obtained from Becton, Dickinson and Company (USA). Dimethyl sulfoxide (DMSO) for microbial experiments was BioReagent™ grade and was purchased from Sigma-Aldrich. The nutrient broth and Müller-Hinton agar was purchased from Becton, Dickinson and Company (USA). Bacillus cereus, Pseudomonas aeruginosa (#27853), Klebsiella pneumonia (#13883), Proteus vulgaris (#13315), Staphylococcus aureus (#25923) and Escherichia coli (#25922) strains were obtained from the American Type Culture Collection (ATCC). All materials in contact with antimicrobial matter was treated for 40 min at 121° C. and 20 psi in a biohazard autoclave bag prior to waste disposing or washing. McFarland turbity standards containing barium sulfate were obtained from bioMérieux.
as §1, with “the” for “these”, “colonies” for “colony”, “standards.” for “standards (bioMerieux, SA (France) they are made from barium sulfate (BaSO4).”
(§5) Stock solutions of compounds and the Cu complexed compounds were made in DMSO and were micropipetted onto the discs for 25 to 200 μg compound/disc. The discs were dried at ambient temperature for 30-50 min before placement onto the seeded Petri dishes which were then incubated at 37° C. for 24 h. Averaged inhibition zone measurements (mm) have an accuracy of ±0.5 mm; adjacent overlapping ZOI were determined using radii measurements.

For test [5], the system named is Pseudomonas aeruginosa (#27853). Put plainly: In vitro disc diffusion assay, ZOI (Example 3). The format is cell-based. Conditions: P. aeruginosa; control; 10 μg/disc. On the procedure:
as §4
as §1, with “the” for “these”, “colonies” for “colony”, “standards.” for “standards (bioMerieux, SA (France) they are made from barium sulfate (BaSO4).”
as §5

Test [6] relates to Staphylococcus aureus (#25923). The test is described as follows: In vitro disc diffusion assay, ZOI (Example 3). The format is cell-based. Conditions: S. aureus; control; 10 μg/disc. On the procedure:
as §4
as §1, with “the” for “these”, “colonies” for “colony”, “standards.” for “standards (bioMerieux, SA (France) they are made from barium sulfate (BaSO4).”
as §5

Test [7] concerns Klebsiella pneumonia (#13883). The test is described as follows: In vitro disc diffusion assay, ZOI (Example 3). Conditions: K. pnemonia; control; 10 μg/disc. The format is cell-based. On the procedure: as §4
as §1, with “the” for “these”, “colonies” for “colony”, “standards.” for “standards (bioMerieux, SA (France) they are made from barium sulfate (BaSO4).”
as §5

The next test relates to Bacillus cereus. The test is described as follows: In vitro disc diffusion assay, ZOI (Example 3). Conditions: B. cereus; control; 10 μg/disc. The format is cell-based. On the procedure:
as §4
as §1, with “the” for “these”, “colonies” for “colony”, “standards.” for “standards (bioMerieux, SA (France) they are made from barium sulfate (BaSO4).”
as §5

The test system of test [8] is Escherichia coli (#25922). The test is described as follows: In vitro disc diffusion assay, ZOI (Example 3). The format is cell-based. The note with it: E. coli; control; 10 μg/disc. On the procedure: as §4
as §1, with “the” for “these”, “colonies” for “colony”, “standards.” for “standards (bioMerieux, SA (France) they are made from barium sulfate (BaSO4).”
as §5

Test [9] relates to B. cereus. The test is described as follows: Disc diffusion zone of inhibition (Example 2). The format is cell-based. Conditions: Bacillus cereus.
Test [10] concerns S. aureus. The test is described as follows: Disc diffusion zone of inhibition (Example 2). The format is cell-based. Conditions: Staphylococcus aureus.

Usually zone of inhibition stands for the extent of the growth-free halo in a diffusion test. `O=Cc1ccccn1` [2-pyridine carboxaldehyde]: the zone of inhibition at 50 µg/disc with S. aureus [1] (Staphylococcus aureus, 50 μg/disc) came to 15 mm; in the test with P. vulgaris (Proteus vulgaris, 50 μg/disc) it was 22 mm; with K. pnemonia (Klebsiella pneumoniae, 50 μg/disc) it was 23 mm; with E. coli (Escherichia coli, 50 μg/disc) it was 17 mm; with B. cereus [3] (Bacillus cereus, 50 μg/disc), 20 mm; with P. aeruginosa (Pseudomonas aeruginosa, 50 μg/disc), 24 mm. For the same molecule, the “% Antiox-Act” value in test [2] is on record as 67.0%.
As for Gentamicin, the Zone of Inhibition with S. aureus [1] (10 μg/disc) is listed as 25 mm; with P. vulgaris (10 μg/disc), 24 mm; with K. pnemonia (10 μg/disc), 25 mm; in the test with E. coli (10 μg/disc) it was 24 mm; in the test on B. cereus [3] (10 μg/disc), 25 mm; in the test with P. aeruginosa (10 μg/disc), 20 mm. Further, the ZOI is on record as 9 mm in test [4]; 7 mm in test [5]; 9.5 mm in [6]; 9.5 mm in test [7]; 9.5 mm in the test on Bacillus cereus; 9 mm in test [8].
Consider `Nc1ccccc1SCc1ccccc1` [S-benzyl-ortho-aminothiophenol, S-benzyl ortho-aminothiophenol], for which the zone of inhibition at 166 µg/disc was 11 mm with S. aureus [1] (Staphylococcus aureus, 166 μg/disc) and 12 mm in the test on B. cereus [3] (Bacillus cereus, 166 μg/disc). Moreover, the zone of inhibition at 333 µg/disc was determined as 15 mm in the test on B. cereus [9] (333 μg/disc) and 13 mm in the test with S. aureus [10] (333 μg/disc). For the same molecule, the zone of inhibition at 666 µg/disc in the test on B. cereus [9] (666 μg/disc) worked out at 16 mm; with S. aureus [10] (666 μg/disc), 15 mm.

The record behind these values is US20140348880A1, “Ortho-Aminothiophenol Compounds and Uses Thereof” (Cape Breton University, priority 2013, published 2014).
